Experimental data reported in PubChem BioAssay (NCI).
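Cells were grown in 96-well plates and exposed to each compound for 48 hours at five concentrations; endpoints were interpolated linearly between bracketing concentrations, or set to the highest concentration if not reached. TGI denotes the concentration required for complete inhibition of growth.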

How the values were obtained:
Experiment in all cases: NCI tumour cell line growth inhibition, 48 h
XF 498 CNS = system: XF 498 CNS
A549 NSCLC = system: A549 NSCLC
LXFL 529 NSCLC = system: LXFL 529 NSCLC
HOP-18 NSCLC = system: HOP-18 NSCLC
KM12 colon = system: KM12 colon
M14 melanoma = system: M14 melanoma
UACC-257 melanoma = system: UACC-257 melanoma
A498 renal = system: A498 renal
HOP-62 NSCLC = system: HOP-62 NSCLC
EKVX NSCLC = system: EKVX NSCLC
DMS 273 small cell lung = system: DMS 273 small cell lung
MOLT-4 leukemia = system: MOLT-4 leukemia
SNB-19 CNS = system: SNB-19 CNS
ACHN renal = system: ACHN renal
NCI-H226 lung = system: NCI-H226 lung
SNB-78 CNS = system: SNB-78 CNS
SK-OV-3 ovarian = system: SK-OV-3 ovarian
UO-31 renal = system: UO-31 renal
IGROV1 ovarian = system: IGROV1 ovarian
HL-60(TB) leukemia = system: HL-60(TB) leukemia
OVCAR-5 ovarian = system: OVCAR-5 ovarian
RXF-631 renal = system: RXF-631 renal
NCI-H23 lung = system: NCI-H23 lung
SF-539 CNS = system: SF-539 CNS
UACC-62 melanoma = system: UACC-62 melanoma
SF-268 CNS = system: SF-268 CNS
HCC-2998 colon = system: HCC-2998 colon
SK-MEL-28 melanoma = system: SK-MEL-28 melanoma
SF-295 CNS = system: SF-295 CNS
M19-MEL melanoma = system: M19-MEL melanoma
U251 CNS = system: U251 CNS
OVCAR-3 ovarian = system: OVCAR-3 ovarian
TK-10 renal = system: TK-10 renal
CAKI-1 renal = system: CAKI-1 renal
OVCAR-4 ovarian = system: OVCAR-4 ovarian
COLO 205 colon = system: COLO 205 colon
786-0 renal = system: 786-0 renal
K-562 leukemia = system: K-562 leukemia
HCT-116 colon = system: HCT-116 colon
LOX IMVI melanoma = system: LOX IMVI melanoma
RPMI-8226 leukemia = system: RPMI-8226 leukemia
SK-MEL-2 melanoma = system: SK-MEL-2 melanoma
DMS 114 small cell lung = system: DMS 114 small cell lung
DLD-1 colon = system: DLD-1 colon
SW-620 colon = system: SW-620 colon
NCI-H460 lung = system: NCI-H460 lung
OVCAR-8 ovarian = system: OVCAR-8 ovarian
RXF 393 renal = system: RXF 393 renal
NCI-H522 lung = system: NCI-H522 lung
SK-MEL-5 melanoma = system: SK-MEL-5 melanoma
KM20L2 colon = system: KM20L2 colon
MALME-3M melanoma = system: MALME-3M melanoma
CCRF-CEM leukemia = system: CCRF-CEM leukemia
SNB-75 CNS = system: SNB-75 CNS
SN12C renal = system: SN12C renal
HCT-15 colon = system: HCT-15 colon
SR leukemia = system: SR leukemia
HOP-92 NSCLC = system: HOP-92 NSCLC
HT29 colon = system: HT29 colon

Measured: TGI

CC(=O)Nc1ccc(/C=c2\sc3nnc(/C=C/c4ccccc4)n3c2=O)cc1
> 50 µM: XF 498 CNS | A549 NSCLC | LXFL 529 NSCLC | HOP-18 NSCLC | KM12 colon | M14 melanoma | UACC-257 melanoma | A498 renal | HOP-62 NSCLC | EKVX NSCLC | DMS 273 small cell lung | MOLT-4 leukemia | SNB-19 CNS | ACHN renal | NCI-H226 lung | SNB-78 CNS | SK-OV-3 ovarian | UO-31 renal | IGROV1 ovarian | HL-60(TB) leukemia | OVCAR-5 ovarian | RXF-631 renal | NCI-H23 lung | SF-539 CNS | UACC-62 melanoma | SF-268 CNS | HCC-2998 colon | SK-MEL-28 melanoma | SF-295 CNS | M19-MEL melanoma | U251 CNS | OVCAR-3 ovarian | TK-10 renal | CAKI-1 renal | OVCAR-4 ovarian | COLO 205 colon | 786-0 renal | K-562 leukemia | HCT-116 colon | LOX IMVI melanoma | RPMI-8226 leukemia | SK-MEL-2 melanoma | DMS 114 small cell lung | DLD-1 colon | SW-620 colon | NCI-H460 lung | OVCAR-8 ovarian | RXF 393 renal | NCI-H522 lung | SK-MEL-5 melanoma | KM20L2 colon | MALME-3M melanoma | CCRF-CEM leukemia | SNB-75 CNS | SN12C renal

C/C=C/C=C/[C@H]1Cc2cc(O)cc(O)c2O1
> 100 µM: XF 498 CNS | A549 NSCLC | HCT-15 colon | LXFL 529 NSCLC | HOP-18 NSCLC | KM12 colon | M14 melanoma | UACC-257 melanoma | A498 renal | HOP-62 NSCLC | EKVX NSCLC | DMS 273 small cell lung | MOLT-4 leukemia | SR leukemia | SNB-19 CNS | ACHN renal | SNB-78 CNS | SK-OV-3 ovarian | UO-31 renal | IGROV1 ovarian | OVCAR-5 ovarian | RXF-631 renal | NCI-H23 lung | SF-539 CNS | HOP-92 NSCLC | UACC-62 melanoma | SF-268 CNS | SK-MEL-28 melanoma | SF-295 CNS | M19-MEL melanoma | U251 CNS | OVCAR-3 ovarian | TK-10 renal | CAKI-1 renal | OVCAR-4 ovarian | COLO 205 colon | 786-0 renal | K-562 leukemia | HCT-116 colon | HT29 colon | LOX IMVI melanoma | SK-MEL-2 melanoma | DMS 114 small cell lung | DLD-1 colon | SW-620 colon | NCI-H460 lung | OVCAR-8 ovarian | RXF 393 renal | NCI-H522 lung | SK-MEL-5 melanoma | KM20L2 colon | MALME-3M melanoma | CCRF-CEM leukemia | SNB-75 CNS | SN12C renal
92.8 µM: HL-60(TB) leukemia
